Where “and” joins values, the source holds several entries; their conditions need not be identical. Equal entries are not always repeated. Where two headings read alike, the source gives them in different places.
Key:
[1] = Brain tissue levels of AIT-082 (HPLC); assay type: in vivo, C57BL/6 mice; details: for Level of AIT-082 in brain tissue: 30 mg/kg i.p., 30 minutes after administration, 30 mg/kg
acetylcholine receptors = assay type: binding, mice; details: for number of receptors (B max): mice treated 30 mg/kg 2 hours prior to sacrifice
Swiss Webster mice = experiment: T-maze discrimination learning and reversal; assay type: in vivo
Excerpt: Subjects were also trained in the same T-maze used for the win-shift model discussed above. As in the win-shift method, subjects were shaped and then given a single reference run in which reward was available in both goal boxes. The subject was only allowed to consume the milk reward in the goal box selected. On the next run, the reward and thus the correct response was in the same goal box selected for the reference run and was not alternated. The subject was required to learn that there was no shift in the goal box for the correct response. The subjects were given 10 trials per day and continued until the subject had at least 8 out of 10 correct responses on two consecutive days. The number of days to reach this criteria of performance was recorded. After the subject reached criteria, the goal box for the correct response was reversed. The number of days taken to reach criteria on reversal was recorded.

NT-3 = experiment: Two-site ELISA of growth factor protein in rat brain and spinal cord: NT-3; assay type: in vivo, F344 rats
Procedure: (§1) Adult female F344 rats were given either AIT-082 (doses: 30 mg/kg/day or a higher dose of 30 mg/ml (˜3,000 mg/kg/day); n=6 rats per group) in their drinking water, or water alone, as a vehicle for control. The duration of the study was seven days, at which time the rats were anesthesized and perfused with ice-cold saline. The brains of the rats were rapidly removed. The brains were placed on a chilled glass plate and dissected into the following regions: basal forebrain, frontal cortex, parietal cortex, cerebellum, spinal cord, and hippocampal formation. Tissues were stored at −70° C. until assayed in a specific two-site ELISA for either NGF, BDNF, NT-3, or GNDF.
(§2) The results are shown in FIGS. 45 (BDNF), 46 (NT-3), 47 (GDNF) and 48 (NGF). For the results shown in FIGS. 45-48, animals were given only water (VEH, n=6) or water with AIT-082 at either 30 mg/kg/day (n=6) or 30 mg/ml (n=6) for seven days. The levels of each growth factor were determined in the frontal cortex (F. Cor.), parietal cortex (P.Cor.), hippocampal formation (Hipp.), basal forebrain (B.F.), cerebellum (Cer.), or spinal cord (Cord) using a specific two-site ELISA for each growth factor.
(§3) Adult female rats were given AIT-082 (30 mg/kg/day) in their drinking water or drinking water alone (n=6 for each group) for seven days prior to receiving a bilateral fimbria fornix transection (FFT).
(§4) The results are shown in FIGS. 49 (BDNF), 50 (NT-3), 51 (GDNF) and 52 (NGF). For the results shown in the Figures, animals were given only water (VEH, n=3) or water with AIT-082 at 30 mg/kg/day (n=3). Levels of the growth factor were determined in frontal cortex (F.Cor.), parietal cortex (P.Cor.), hippocampal formation (Hipp.), basal forebrain (B.F.), cerebellum (Cer.), or spinal cord (Cord) using a specific two-site ELISA for each growth factor.
Aged female Fischer 344 rats (obtained from National Institute on Aging; 24 months on arrival) were given AIT-082 (30 mg/kg/day) in their drinking water or drinking water alone, for a period of 30 days (n=5 rats per group). After 30 days, animals were sacrificed and fresh tissues were dissected as described above. An additional set of young animals (n=5) was processed along with the aged rats for comparison.
Results are shown in FIGS. 53 (BDNF), 54 (NT3), 55 (GDNF), and 56 (NGF). As described above, for the results shown in these figures, aged rats (24 months of age) were given water (vehicle control; n=5) or water with AIT-082 (at 30 mg/kg/day; n=5 for 30 days). A separate group of young untreated animals was also included (n=5). Levels of each growth factor were determined in frontal cortex (F.Cor.), parietal cortex (P. Cor.), hippocampal formation (Hipp.), basal forebrain (B.F.), cerebellum (Cer.) or spinal cord (Cord) using a specific two-site ELISA.

GDNF = experiment: Two-site ELISA of growth factor protein in rat brain and spinal cord: GDNF; assay type: in vivo, F344 rats
Procedure: as §1, §2, §3
as §4, with “For the results shown in the Figures, animals were given only water (VEH, n=3) or water with AIT-082 at 30 mg/kg/day (n=3).” left out, “factor. […]” for “factor.”
Results are shown in FIGS. 53 (BDNF), 54 (NT3), 55 (GDNF), and 56 (NGF). […] Levels of each growth factor were determined in frontal cortex (F.Cor.), parietal cortex (P. Cor.), hippocampal formation (Hipp.), basal forebrain (B.F.), cerebellum (Cer.) or spinal cord (Cord) using a specific two-site ELISA.

S100β = experiment: Summary of effects on growth factor mRNA and protein (Table R): S100β; parameters: key: ± = mRNA; + = protein; nt = not tested; details: Cultured Cells
Excerpt: The constellation of effects of AIT-082 on production of mRNA encoding growth factors and on production of growth factor proteins is shown in Table R. The results summarized in […] show both transcriptional and translational effects on growth factors that are in the categories of neurotrophins, pleiotrophins, members of the S100 family of EF hand calcium binding proteins, and members of the TGFβ superfamily. As indicated, effects have been shown at both the mRNA (transcriptional) and protein (translational) levels.

[2] = FFT-lesioned rats, 30 mg/kg/day, basal forebrain

O=C(CCn1cnc2c(=O)[nH]cnc21)Nc1ccc(C(=O)O)cc1 [AIT-082, N-4-carboxyphenyl-3-(6-oxohydropurin-9-yl)propanamide]
level detected in brain ([1]; 30 minutes after oral administration): ≤ 3.3 ng/mg brain tissue | Level of AIT-082 in brain tissue ([1]; Cortex): 2.8 ng/mg brain tissue and 3.4 ng/mg brain tissue | Level of AIT-082 in brain tissue ([1]; Remainder of brain): 2.3 ng/mg brain tissue and 3.3 ng/mg brain tissue | passage of the blood-brain barrier ([1]; brain tissue after 30 minutes): crosses the blood-brain barrier without degradation | affinity (Kd) for QNB (acetylcholine receptors): no effect | number of receptors (B max) (acetylcholine receptors; cortex): decrease | number of receptors (B max) (acetylcholine receptors; striatum): increase | T-maze Learning, Learning (Swiss Webster mice; AIT-082 0.5 mg/kg): 3.0 days to reach criteria | T-maze Learning, Reversal (Swiss Webster mice; AIT-082 0.5 mg/kg): 3.78 days to reach criteria | T-maze Learning, Learning (Swiss Webster mice; AIT-082 30.0 mg/kg): 3.3 days to reach criteria | T-maze Learning, Reversal (Swiss Webster mice; AIT-082 30.0 mg/kg): 3.5 days to reach criteria | NT-3 protein levels compared to vehicle controls (NT-3; [2]): threefold | NT-3 protein levels (NT-3; aged rats, 30 mg/kg/day 30 days, hippocampus): restored NT-3 protein levels to those of young animals | NT-3 protein levels (NT-3; intact adult rats, 30 mg/kg/day, cerebellum): increased NT-3 levels in cerebellum over vehicle controls | NT-3 protein levels (NT-3; intact adult rats, 3000 mg/kg/day, cerebellum): absent | GDNF protein levels (GDNF; [2]): increased GDNF levels | GDNF protein levels (GDNF; aged rats, 30 mg/kg/day 30 days, parietal and frontal cortex): restored GDNF protein levels to those of young animals | GDNF protein levels (GDNF; intact adult rats, 3000 mg/kg/day, basal forebrain and spinal cord): increased GDNF levels | S100β, effect on mRNA/protein production (S100β): +
